From patent US9951065B2 (Gilead Sciences, Inc., priority 2015, dated 2018)

biological target: T1, IDO1 (Homo sapiens, UniProt P14902); assay: Cell-based (HeLa) assay for measurement of IDO1 inhibition (kynurenine levels in supernatant after IFNγ induction); conditions: HeLa cells, IFNγ-induced IDO1, kynurenine in supernatant after 48 hour incubation; geometric mean of a minimum of four determinations
T1 construct: HeLa cells were treated with a test compound in the presence of IFNγ, which induces IDO1 expression; host or cells: H1-HeLa cells, IDO1 induced with IFNγ
In short: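 HeLa cells, 1,250 per well, treated with compound (0.5% DMSO final) plus IFNγ to induce IDO1, for 48 h. Supernatant kynurenine measured by TCA hydrolysis at 60 °C, then p-dimethylaminobenzaldehyde, absorbance 480 nm. EC50 from a four-parameter fit normalized to −/+IFNγ controls; geometric mean of at least four runs.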

T1 sequence (P14902 whole entry): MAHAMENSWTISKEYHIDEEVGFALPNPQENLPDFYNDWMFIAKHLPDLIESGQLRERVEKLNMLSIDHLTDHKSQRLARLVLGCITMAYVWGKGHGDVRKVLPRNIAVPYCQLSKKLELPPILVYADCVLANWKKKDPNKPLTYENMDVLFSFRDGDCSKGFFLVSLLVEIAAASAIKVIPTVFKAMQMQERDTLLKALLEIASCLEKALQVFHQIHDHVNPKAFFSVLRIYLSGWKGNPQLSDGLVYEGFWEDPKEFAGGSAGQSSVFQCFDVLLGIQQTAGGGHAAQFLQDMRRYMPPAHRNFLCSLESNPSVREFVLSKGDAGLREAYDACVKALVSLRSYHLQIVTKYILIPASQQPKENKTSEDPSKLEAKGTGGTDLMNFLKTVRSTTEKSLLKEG

| EC50 [nM] | SMILES |
| --- | --- |
| 526 | CN(C)Cc1nc2c(/C(=N/O)Nc3ccc(F)c(Cl)c3)cc(F)c(F)c2[nH]1 [Example 52, N-(3-Chloro-4-fluorophenyl)-2-((dimethylamino)methyl)-6,7-difluoro-N′-hydroxy-4H-benzo[d]imidazole-4-carboximidamide] |
| 241 | CNc1nc2nccc(/C(=N/O)Nc3ccc(F)c(Br)c3)c2[nH]1 [Example 257, N-(3-bromo-4-fluorophenyl)-N′-hydroxy-2-(methylamino)-1H-imidazo[4,5-b]pyridine-7-carboximidamide] |
| 140 | O/N=C(\Nc1ccc(F)c(Br)c1)c1ccnc2nc[nH]c12 [Example 81, N-(3-Bromo-4-fluorophenyl)-N′-hydroxy-1H-imidazo[4,5-b]pyridine-7-carboximidamide] |
| 1390 | O/N=C(\Nc1ccc(F)c(Cl)c1)c1ccnc2nc(C3CC3)[nH]c12 [Example 109, N-(3-Chloro-4-fluorophenyl)-2-cyclopropyl-N′-hydroxy-1H-imidazo[4,5-b]pyridine-7-carboximidamide] |
| 1480 | CNCc1nc2nccc(/C(=N/O)Nc3ccc(F)c(Cl)c3)c2[nH]1 [Example 178, N-(3-Chloro-4-fluorophenyl)-N′-hydroxy-2-((methylamino)methyl)-1H-imidazo[4,5-b]pyridine-7-carboximidamide] |
| 607 | Nc1nc2c(F)c(F)cc(/C(=N/O)Nc3cccc(Cl)c3)c2[nH]1 [Example 16, 2-Amino-N-(3-chlorophenyl)-4,5-difluoro-N′-hydroxy-1H-benzo[d]imidazole-7-carboximidamide] |
| 5100 | CC(C)c1cc(N/C(=N\O)c2ccnc3nc[nH]c23)ccc1F [Example 93, N-(4-Fluoro-3-isopropylphenyl)-N′-hydroxy-1H-imidazo[4,5-b]pyridine-7-carboximidamide] |
| 4200 | O/N=C(\Nc1ccc(F)c(Cl)c1)c1ccnc2nc(C(O)C(F)(F)F)[nH]c12 (stereo not drawn) [Example 176, N-(3-Chloro-4-fluorophenyl)-N′-hydroxy-2-(2,2,2-trifluoro-1-hydroxyethyl)-1H-imidazo[4,5-b]pyridine-7-carboximidamide] |
| 1210 | CN(C)Cc1nc2c(F)c(F)cc(/C(=N/O)Nc3cccc(Cl)c3)c2[nH]1 [Example 26, N-(3-Chlorophenyl)-2-((dimethylamino)methyl)-4,5-difluoro-N′-hydroxy-1H-benzo[d]imidazole-7-carboximidamide] |
| 7090 | O/N=C(\Nc1ccc(F)c(Cl)c1)c1ccnc2nc(C(O)C3CC3)[nH]c12 (stereo not drawn) [Example 174, N-(3-Chloro-4-fluorophenyl)-2-(cyclopropyl(hydroxy)methyl)-N′-hydroxy-1H-imidazo[4,5-b]pyridine-7-carboximidamide] |
| 2140 | O/N=C(\Nc1ccc(F)c(Cl)c1)c1ccnc2nc(NC3CCOCC3)[nH]c12 [Example 228, N-(3-chloro-4-fluorophenyl)-N′-hydroxy-2-((tetrahydro-2H-pyran-4-yl)amino)-1H-imidazo[4,5-b]pyridine-7-carboximidamide] |
| 315 | O/N=C(\Nc1ccc(F)c(C(F)(F)F)c1)c1ccnc2nc[nH]c12 [Example 83, N-(4-Fluoro-3-(trifluoromethyl)phenyl)-N′-hydroxy-1H-imidazo[4,5-b]pyridine-7-carboximidamide] |
| 2640 | CCC#Cc1cc(N/C(=N\O)c2ccnc3nc[nH]c23)ccc1F [Example 78, N-(3-(But-1-yn-1-yl)-4-fluorophenyl)-N′-hydroxy-1H-imidazo[4,5-b]pyridine-7-carboximidamide] |
| 2460 | O/N=C(\Nc1ccc(F)c(Cl)c1)c1ccc(OC(F)(F)F)c2nc[nH]c12 [Example 2, N-(3-Chloro-4-fluorophenyl)-N′-hydroxy-4-(trifluoromethoxy)-1H-benzo[d]imidazole-7-carboximidamide] |
| 2180 | O/N=C(\Nc1ccc(F)c(Cl)c1)c1ccnc2nc(NCCC3CCCCC3)[nH]c12 [Example 223, N-(3-chloro-4-fluorophenyl)-2-((2-cyclohexylethyl)amino)-N′-hydroxy-1H-imidazo[4,5-b]pyridine-7-carboximidamide] |
| 890 | O/N=C(\Nc1ccc2ccoc2c1)c1ccnc2nc[nH]c12 [Example 68, N-(Benzofuran-6-yl)-N′-hydroxy-1H-imidazo[4,5-b]pyridine-7-carboximidamide] |
| 2290 | O/N=C(\Nc1ccc(F)c(-c2ccccc2)c1)c1ccnc2nc[nH]c12 [Example 77, N-(6-Fluoro-[1,1′-biphenyl]-3-yl)-N′-hydroxy-1H-imidazo[4,5-b]pyridine-7-carboximidamide] |
| 803 | CCc1cccc(N/C(=N\O)c2ccnc3nc[nH]c23)c1 [Example 96, N-(3-Ethylphenyl)-N′-hydroxy-1H-imidazo[4,5-b]pyridine-7-carboximidamide] |
| 379 | CN(C)CCc1nc2c(/C(=N/O)Nc3cccc(Br)c3)cc(F)c(F)c2[nH]1 [Example 55, N-(3-Bromophenyl)-2-(2-(dimethylamino)ethyl)-6,7-difluoro-N′-hydroxy-1H-benzo[d]imidazole-4-carboximidamide] |
| 2150 | O/N=C(\Nc1ccc(F)c(Cl)c1)c1ccnc2nc(Nc3ccccc3)[nH]c12 [Example 155, N-(3-Chloro-4-fluorophenyl)-N′-hydroxy-2-(phenylamino)-1H-imidazo[4,5-b]pyridine-7-carboximidamide] |
| 383 | CNc1nc2nccc(/C(=N/O)Nc3cccc(Cl)c3)c2[nH]1 [Example 166, N-(3-Chlorophenyl)-N′-hydroxy-2-(methylamino)-1H-imidazo[4,5-b]pyridine-7-carboximidamide] |

same assay, conditions: HeLa cells, IFNγ-induced IDO1, kynurenine in supernatant, 48 hour incubation; geometric mean of a minimum of four determinations

| EC50 [nM] | SMILES |
| --- | --- |
| 692 | CN(C)CCCNc1nc2c(F)c(F)cc(/C(=N/O)Nc3ccc(F)c(Br)c3)c2[nH]1 [Example 387, N-(3-bromo-4-fluorophenyl)-2-((3-(dimethylamino)propyl)amino)-4,5-difluoro-N′-hydroxy-1H-benzo[d]imidazole-7-carboximidamide] |
| 4050 | CC(CN(C)C)c1nc2nccc(/C(=N/O)Nc3ccc(F)c(Cl)c3)c2[nH]1 (stereo not drawn) [Example 326, N-(3-chloro-4-fluorophenyl)-2-(1-(dimethylamino)propan-2-yl)-N′-hydroxy-1H-imidazo[4,5-b]pyridine-7-carboximidamide] |
| 472 | CN(C)C1CCCC1Nc1nc2c(F)c(F)cc(/C(=N/O)Nc3ccc(F)c(Cl)c3)c2[nH]1 (stereo not drawn) [Example 461, N-(3-chloro-4-fluorophenyl)-2-((2-(dimethylamino)cyclopentyl)amino)-4,5-difluoro-N′-hydroxy-1H-benzo[d]imidazole-7-carboximidamide] |
| > 10000 | O=S(=O)(NCCNc1nc2c(F)c(F)cc(/C(=N/O)Nc3ccc(F)c(Cl)c3)c2[nH]1)c1ccccc1 [Example 339, N-(3-chloro-4-fluorophenyl)-4,5-difluoro-N′-hydroxy-2-((2-(phenylsulfonamido)ethyl)amino)-1H-benzo[d]imidazole-7-carboximidamide] |
| 1320 | CCC(CC)CN(C)CCNc1nc2c(F)c(F)cc(/C(=N/O)Nc3ccc(F)c(Cl)c3)c2[nH]1 [Example 397, N-(3-chloro-4-fluorophenyl)-2-((2-((2-ethylbutyl)(methyl)amino)ethyl)amino)-4,5-difluoro-N′-hydroxy-1H-benzo[d]imidazole-7-carboximidamide] |
| 332 | CN(CCNc1nc2c(F)c(F)cc(/C(=N/O)Nc3ccc(F)c(Cl)c3)c2[nH]1)CC1CCOCC1 [Example 394, N-(3-chloro-4-fluorophenyl)-4,5-difluoro-N′-hydroxy-2-((2-(methyl((tetrahydro-2H-pyran-4-yl)methyl)amino)ethyl)amino)-1H-benzo[d]imidazole-7-carboximidamide] |
| 8790 | Cn1nccc1CNc1nc2nccc(/C(=N/O)Nc3ccc(F)c(Cl)c3)c2[nH]1 [Example 358, N-(3-chloro-4-fluorophenyl)-N′-hydroxy-2-(((1-methyl-1H-pyrazol-5-yl)methyl)amino)-1H-imidazo[4,5-b]pyridine-7-carboximidamide] |
| 432 | CN(C)CC(C)(C)CNc1nc2c(F)c(F)cc(/C(=N/O)Nc3ccc(F)c(Cl)c3)c2[nH]1 [Example 351, N-(3-chloro-4-fluorophenyl)-2-((3-(dimethylamino)-2,2-dimethylpropyl)amino)-4,5-difluoro-N′-hydroxy-1H-benzo[d]imidazole-7-carboximidamide] |
| 2650 | CN1CCOC[C@H]1CNc1nc2nccc(/C(=N/O)Nc3ccc(F)c(Cl)c3)c2[nH]1 [Example 482, (R)-N-(3-chloro-4-fluorophenyl)-N′-hydroxy-2-(((4-methylmorpholin-3-yl)methyl)amino)-1H-imidazo[4,5-b]pyridine-7-carboximidamide] |
| 555 | CN(CCNc1nc2c(F)c(F)cc(/C(=N/O)Nc3ccc(F)c(Cl)c3)c2[nH]1)CC1CC1 [Example 398, N-(3-chloro-4-fluorophenyl)-2-((2-((cyclopropylmethyl)(methyl)amino)ethyl)amino)-4,5-difluoro-N′-hydroxy-1H-benzo[d]imidazole-7-carboximidamide] |
| 1160 | CN(C)CCCNc1nc2cc(F)cc(/C(=N/O)Nc3ccc(F)c(Cl)c3)c2[nH]1 [Example 389, N-(3-chloro-4-fluorophenyl)-2-((3-(dimethylamino)propyl)amino)-5-fluoro-N′-hydroxy-1H-benzo[d]imidazole-7-carboximidamide] |
| 139 | CN(C)CCNc1nc2c(F)c(F)cc(/C(=N/O)Nc3cccc(Cl)c3)c2[nH]1 [Example 431, N-(3-chlorophenyl)-2-((2-(dimethylamino)ethyl)amino)-4,5-difluoro-N′-hydroxy-1H-benzo[d]imidazole-7-carboximidamide] |
